The record followed here is PMC4750701, “Role of Mitochondrial RNA Polymerase in the Toxicity of Nucleotide Inhibitors of Hepatitis C Virus” (Antimicrobial Agents and Chemotherapy, 2016).

Read-outs that look alike come from different tables or passages of the source.

In series [1] the target is T1, Human DNA polymerase alpha (Homo sapiens, UniProt P09884).
T1 construct: isolated from HeLa cell extracts; purchased CHIMERx (Madison, WI); host or cells: HeLa cell extracts (endogenous enzyme)
Nature of the series: Inhibition of human DNA polymerase alpha. In kind it is biochemical. As to conditions: triphosphate form of the compound tested; read-out: Mean IC50 ± SD for DNA Pol α. From the text: Activated fish sperm DNA was purchased from USB/Affymetrix (Santa Clara, CA) and used as a template for the DNA polymerases alpha, beta, and gamma. […] The RNA and DNA oligonucleotides used in the mitochondrial RNA polymerase assay (see Table S1 in the supplemental material) were synthesized and PAGE purified by Thermo Scientific/Dharmacon (Lafayette, CO). RNA primer R12 was 5′-^32P-phosphorylated with [γ-^32P]ATP (3,000 Ci/mmol) and T4 kinase (New England BioLabs, Ipswich, MA).
(§1) Human DNA polymerase alpha, isolated from HeLa cell extracts, was from CHIMERx (Madison, WI). Recombinant human DNA polymerase beta, expressed in E. coli, was a gift from Zucai Suo at The Ohio State University. Recombinant human DNA polymerase gamma (including both the large subunit and the small subunit) was cloned, expressed, and purified from insect cells by Gilead Sciences (Foster City, CA) ([13]). RNA PolII was purchased as part of the HeLaScribe nuclear extract in vitro transcription system kit from Promega (Madison, WI). The recombinant human PolRMT and the transcription factors mitochondrial transcription factor A (mtTFA) and B2 (mtTFB2) were purchased from Enzymax (Lexington, KY). FLAG epitope-tagged RNA PolI and PolIII complexes were isolated from rat NSN1 cells and HeLa cells, respectively ([17], [18]). The inhibition of DNA polymerases alpha, beta, and gamma, PolRMT, and PolII and the rate of single-nucleotide incorporation by PolRMT have been described previously in detail ([12], [13], [19]). Inhibition of RNA PolI and PolIII was studied using published methods ([20], [21]). All concentrations were final unless noted otherwise. […] After incubation at 30°C for 20 min to 1 h, the reactions were terminated by pipetting the mixtures onto DEAE-cellulose discs (DE81; Whatman), and the products analyzed as described previously ([20], [21]).

Series [2] addresses T2, Recombinant human DNA polymerase beta (Homo sapiens, UniProt P06746).
T2 construct: host or cells: E. coli
The series is described as follows: Inhibition of human DNA polymerase beta. The format is biochemical. Particulars: triphosphate form of the compound tested; read-out: Mean IC50 ± SD for DNA Pol β.
Text: (§2) Activated fish sperm DNA was purchased from USB/Affymetrix (Santa Clara, CA) and used as a template for the DNA polymerases alpha, beta, and gamma. The DNA template used in the RNA Pol II assay was a 1,188-bp restriction fragment containing the cytomegalovirus (CMV) immediate early promoter (Promega, Madison, WI). The RNA and DNA oligonucleotides used in the mitochondrial RNA polymerase assay (see Table S1 in the supplemental material) were synthesized and PAGE purified by Thermo Scientific/Dharmacon (Lafayette, CO). RNA primer R12 was 5′-^32P-phosphorylated with [γ-^32P]ATP (3,000 Ci/mmol) and T4 kinase (New England BioLabs, Ipswich, MA).
as §1, with “otherwise. For the RNA PolI inhibition assay, a reaction mixture containing 50 mM HEPES (pH 7.9), 20% glycerol, 100 mM KCl, 1 mM dithiothreitol (DTT), 50 μg/ml calf thymus DNA, 4 mM MgCl2, 5 or 80 μM UTP (0.25 μl of [5,6-^3H]UTP, >25 Ci/mmol; PerkinElmer), 1 mM noncompeting NTP, competing NTP (5 μM for GTP, CTP, and UTP and 25 μM for ATP), and various concentrations (0 to 500 μM) of NTP analogs was preincubated at 30°C for 5 min.” for “otherwise.”

The target in series [3] is T3, RNA PolII (Homo sapiens, UniProt P24928+P30876).
T3 construct: purchased as part of the HeLaScribe nuclear extract in vitro transcription system kit; purchased Promega (Madison, WI); host or cells: HeLa nuclear extract (endogenous enzyme)
The series is described as follows: Inhibition of RNA PolII (HeLaScribe nuclear extract transcription). The format is biochemical. Particulars: read-out: Mean IC50 ± SD for RNA PolII.
Text: as §2
as §1, with “otherwise. For the RNA PolI inhibition assay, a reaction mixture containing 50 mM HEPES (pH 7.9), 20% glycerol, 100 mM KCl, 1 mM dithiothreitol (DTT), 50 μg/ml calf thymus DNA, 4 mM MgCl2, 5 or 80 μM UTP (0.25 μl of [5,6-^3H]UTP, >25 Ci/mmol; PerkinElmer), 1 mM noncompeting NTP, competing NTP (5 μM for GTP, CTP, and UTP and 25 μM for ATP), and various concentrations (0 to 500 μM) of NTP analogs was preincubated at 30°C for 5 min.” for “otherwise.”

Series [4] relates to mitochondrial DNA-encoded cytochrome c oxidase (COX-1; complex IV) protein level. The series is described as follows: Mitochondrial protein synthesis assay (COX-1, MitoBiogenesis in-cell ELISA) in PC-3 cells. The format is cell-based, human. Particulars: human; PC-3 cells, COX-1, 5 days; read-out: Mean CC50 ± SD causing Mitochondrial toxicity: Protein synthesis. The method in brief:
(§3)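 PC-3 cells were exposed to compound for 5 days. Protein levels of nuclear-encoded SDH-A and mitochondrial-encoded COX-1 were then quantified by in-cell ELISA (quantitative immunocytochemistry).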
(In an ELISA, binding on a coated surface is turned into a signal by an enzyme label.)

In series [5] the test system is nuclear DNA-encoded succinate dehydrogenase (SDH-A; complex II) protein level. Nature of the series: Nuclear protein synthesis (SDH-A, MitoBiogenesis in-cell ELISA) in PC-3 cells. The format is cell-based, human. Particulars: human, read-out: Mean CC50 ± SD causing General cellular toxicity: Protein synthesis. The method in brief:
as §3

Where [6] appears, read: triphosphate form of the compound tested (Table 4).

T1 sequence (P09884 whole entry): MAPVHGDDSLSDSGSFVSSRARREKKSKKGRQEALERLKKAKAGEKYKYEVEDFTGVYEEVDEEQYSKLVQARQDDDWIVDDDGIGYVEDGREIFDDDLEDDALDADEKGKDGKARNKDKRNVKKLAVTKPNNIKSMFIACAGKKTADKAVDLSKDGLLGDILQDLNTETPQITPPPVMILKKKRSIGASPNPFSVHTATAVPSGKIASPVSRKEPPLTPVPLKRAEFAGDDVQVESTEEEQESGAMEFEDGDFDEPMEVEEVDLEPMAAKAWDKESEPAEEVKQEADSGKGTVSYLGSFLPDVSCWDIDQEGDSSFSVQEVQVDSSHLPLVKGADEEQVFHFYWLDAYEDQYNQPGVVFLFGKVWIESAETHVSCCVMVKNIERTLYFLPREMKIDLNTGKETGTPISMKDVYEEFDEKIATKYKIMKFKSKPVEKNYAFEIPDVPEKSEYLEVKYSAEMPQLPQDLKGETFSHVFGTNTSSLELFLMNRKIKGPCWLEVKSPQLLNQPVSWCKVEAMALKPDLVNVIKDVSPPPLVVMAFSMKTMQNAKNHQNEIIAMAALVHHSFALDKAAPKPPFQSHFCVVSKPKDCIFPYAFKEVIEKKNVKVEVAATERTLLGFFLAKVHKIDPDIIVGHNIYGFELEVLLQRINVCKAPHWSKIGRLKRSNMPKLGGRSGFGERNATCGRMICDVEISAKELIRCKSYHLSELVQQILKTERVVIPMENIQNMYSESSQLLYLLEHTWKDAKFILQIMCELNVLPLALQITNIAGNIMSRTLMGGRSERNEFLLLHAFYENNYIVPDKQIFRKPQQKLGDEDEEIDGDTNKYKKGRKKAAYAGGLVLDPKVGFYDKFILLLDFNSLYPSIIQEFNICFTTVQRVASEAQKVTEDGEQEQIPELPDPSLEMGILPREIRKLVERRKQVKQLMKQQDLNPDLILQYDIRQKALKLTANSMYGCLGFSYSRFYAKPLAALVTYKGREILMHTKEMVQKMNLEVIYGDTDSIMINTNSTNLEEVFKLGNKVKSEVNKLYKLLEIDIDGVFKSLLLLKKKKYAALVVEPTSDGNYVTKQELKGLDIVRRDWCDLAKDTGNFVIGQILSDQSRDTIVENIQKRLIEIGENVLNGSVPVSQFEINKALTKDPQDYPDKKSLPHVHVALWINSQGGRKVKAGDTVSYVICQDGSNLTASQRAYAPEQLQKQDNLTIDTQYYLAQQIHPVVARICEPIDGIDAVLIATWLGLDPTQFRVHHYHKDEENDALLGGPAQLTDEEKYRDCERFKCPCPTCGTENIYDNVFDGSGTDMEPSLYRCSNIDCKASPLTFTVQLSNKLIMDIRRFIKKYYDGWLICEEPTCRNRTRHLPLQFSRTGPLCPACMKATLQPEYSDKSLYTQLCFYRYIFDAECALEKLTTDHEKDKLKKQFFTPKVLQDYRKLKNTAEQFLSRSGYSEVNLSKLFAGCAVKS
T1 sequence (Q14181 whole entry partner): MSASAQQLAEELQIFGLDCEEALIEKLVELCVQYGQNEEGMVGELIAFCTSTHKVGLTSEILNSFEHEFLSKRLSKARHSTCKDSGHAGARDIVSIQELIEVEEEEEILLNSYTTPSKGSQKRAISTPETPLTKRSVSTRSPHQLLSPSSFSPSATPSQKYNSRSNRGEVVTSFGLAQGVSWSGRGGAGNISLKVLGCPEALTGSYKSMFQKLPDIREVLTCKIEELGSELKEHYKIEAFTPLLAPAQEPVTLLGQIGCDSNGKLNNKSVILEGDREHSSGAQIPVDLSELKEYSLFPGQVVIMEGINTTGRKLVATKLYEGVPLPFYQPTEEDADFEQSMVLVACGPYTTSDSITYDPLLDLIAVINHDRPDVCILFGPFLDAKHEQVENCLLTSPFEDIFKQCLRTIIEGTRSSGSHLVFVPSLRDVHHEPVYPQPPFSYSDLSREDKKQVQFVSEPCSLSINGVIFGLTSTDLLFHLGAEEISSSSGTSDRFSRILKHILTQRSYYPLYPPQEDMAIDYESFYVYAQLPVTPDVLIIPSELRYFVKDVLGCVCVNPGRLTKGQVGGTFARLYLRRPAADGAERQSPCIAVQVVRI
T1 sequence (P49642 whole entry partner): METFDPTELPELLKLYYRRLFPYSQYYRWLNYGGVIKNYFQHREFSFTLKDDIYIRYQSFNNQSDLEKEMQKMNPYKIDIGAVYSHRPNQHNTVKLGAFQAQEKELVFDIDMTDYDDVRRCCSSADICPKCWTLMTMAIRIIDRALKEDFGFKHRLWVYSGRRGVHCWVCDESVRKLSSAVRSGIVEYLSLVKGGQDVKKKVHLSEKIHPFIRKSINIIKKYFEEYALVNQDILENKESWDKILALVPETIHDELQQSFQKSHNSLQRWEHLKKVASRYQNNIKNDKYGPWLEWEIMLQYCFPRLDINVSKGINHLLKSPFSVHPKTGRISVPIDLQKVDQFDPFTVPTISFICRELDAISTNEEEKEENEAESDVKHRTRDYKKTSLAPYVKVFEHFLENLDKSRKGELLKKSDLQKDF
T1 sequence (P49643 whole entry partner): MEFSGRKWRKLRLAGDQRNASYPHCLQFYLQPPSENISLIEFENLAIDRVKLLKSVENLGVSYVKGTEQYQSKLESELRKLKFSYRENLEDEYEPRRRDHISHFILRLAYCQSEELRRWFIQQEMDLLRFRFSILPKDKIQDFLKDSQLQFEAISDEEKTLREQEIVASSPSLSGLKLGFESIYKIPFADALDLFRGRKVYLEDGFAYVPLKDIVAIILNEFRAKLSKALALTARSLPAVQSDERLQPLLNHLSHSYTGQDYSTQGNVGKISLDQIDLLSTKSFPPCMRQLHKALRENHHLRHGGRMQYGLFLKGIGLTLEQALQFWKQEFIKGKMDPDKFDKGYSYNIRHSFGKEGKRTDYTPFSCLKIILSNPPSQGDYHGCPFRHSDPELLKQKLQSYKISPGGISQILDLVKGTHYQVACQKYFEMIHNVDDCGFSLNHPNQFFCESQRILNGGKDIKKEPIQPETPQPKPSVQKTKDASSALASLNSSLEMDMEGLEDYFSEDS

As to `C[C@@]1(O)[C@H](O)[C@@H](CO)O[C@H]1n1ccc(N)nc1=O` [2′CMeC, 2′-C-methyl (2′CMe) cytidine], the IC50 in series [1], in series [2] and in series [3] (setting [6]) was greater than 200 µM each time. The CC50 (in general, the concentration giving 50% cytotoxicity) at 5 days in series [4] stood at 50 ± 25 µM; in series [5], 68 ± 26 µM.
Consider `C[C@@]1(O)[C@H](O)[C@@H](COP(=O)(O)OP(=O)(O)OP(=O)(O)O)O[C@H]1n1cnc2c(=O)[nH]c(N)nc21` [2′CMeGTP], for which the IC50 (in general, the concentration that inhibits the measured activity by half) in series [1] was greater than 200 µM; in series [2], greater than 200 µM; in series [3] (nucleotide analogs (Table 6)) it was greater than 500 µM; in series [3] (setting [6]), greater than 200 µM.
In the case of `[N-]=[N+]=N[C@]1(CO)O[C@@H](n2ccc(N)nc2=O)[C@H](O)[C@@H]1O` [4′-AzidoC, 4′-azido cytidine], the IC50 in series [1], in series [2] and in series [3] (setting [6]) was greater than 200 µM in each case. In addition, the CC50 at 5 days in series [4] is 11 ± 3 µM; in series [5] it was greater than 50 µM.
For the compound `COc1nc(N)nc2c1ncn2[C@@H]1O[C@H](COP(=O)(N[C@@H](C)C(=O)OCC(C)(C)C)Oc2cccc3ccccc23)[C@@H](O)[C@@]1(C)O` (stereo partly drawn) [BMS-986094], the CC50 in series [4] worked out at 0.68 ± 0.1 µM. Also, the CC50 at 5 days in series [5] came out at 0.84 ± 0.26 µM.
As for `CC(C)OC(=O)[C@H](C)N[P@](=O)(OC[C@H]1O[C@@](C#N)(c2ccc3c(N)ncnn23)[C@](C)(O)[C@@H]1OC(=O)C(C)C)Oc1ccccc1` [GS-6620], the IC50 in series [1], in series [2] and in series [3] (setting [6]) was greater than 200 µM each time. Besides, the CC50 in series [4] is 31 ± 5 µM. For the same compound, the CC50 at 5 days in series [5] stood at 45 ± 2 µM.
On to `CCOc1nc(N)nc2c1ncn2[C@@H]1O[C@@H]2COP(=O)(OC(C)C)O[C@H]2[C@@]1(C)F` (stereo partly drawn) [PSI-938], for which the IC50 in series [1], in series [2] and in series [3] (setting [6]) was greater than 200 µM each time. Further, the CC50 at 5 days in series [4] and in series [5] was greater than 100 µM in each case.
As for `C[C@@]1(F)[C@H](O)[C@@H](CO)O[C@H]1n1ccc(N)nc1=O` [PSI-6130], the IC50 in series [1], in series [2] and in series [3] (setting [6]) was greater than 200 µM in each case. In addition, the results for the CC50 at 5 days in series [4] and in series [5] were 70 ± 14 µM and greater than 100 µM, respectively.
With `CC(C)OC(=O)[C@H](C)N[P@](=O)(OC[C@H]1O[C@@H](n2ccc(=O)[nH]c2=O)[C@](C)(F)[C@@H]1O)Oc1ccccc1` [Sofosbuvir], the IC50 in series [1], in series [2] and in series [3] (setting [6]) was greater than 200 µM each time. The CC50 at 5 days in series [4] and in series [5] was greater than 100 µM in each case.
